Test results published in patent publication US4864023A, “Pyrido(3,2,1-IJ)-1,3,4-benzoxadiazine derivatives” (priority 1988, dated 1989).
≈ marks a conversion by molar mass, not a printed value. Like-named read-outs stand apart in the source and are kept apart here.

Columns and labels:
[1] = system: Staphylococcus aureus NR 2855; assay: in vitro antibacterial activity, standard agar dilution method; assay type: cell-based; settings: NR2855; Staphylococcus aureus NR 2855; aerobic; agar dilution; read-out: minimum inhibitory concentration (MIC)
[2] = acute toxicity by oral administration; settings: mouse, in vivo; oral administration, ICR mice; read-out: LD50
Source text: The acute toxicity of these compounds was examined by oral administration in ICR mice.

[3] = system: Bordetella bronchiseptica ATCC 4617; assay: in vitro antibacterial activity, standard agar dilution method; assay type: cell-based; settings: ATCC4617, aerobic, read-out: minimum inhibitory concentration (MIC)
[4] = system: Enterococcus faecalis NR 2943; assay: as above; assay type: cell-based; settings: NR2943, aerobic, read-out: minimum inhibitory concentration (MIC)
[5] = system: Enterobacter aerogenes NR 2945; assay: as above; assay type: cell-based; settings: Klebsiella aerogenes, NR2945, aerobic, read-out: minimum inhibitory concentration (MIC)
[6] = system: Serratia marcescens IFO 12648; assay: as above; assay type: cell-based; settings: IFO12648, aerobic, read-out: minimum inhibitory concentration (MIC)
[7] = system: Proteus rettgeri ATCC 14505; assay: as above; assay type: cell-based; settings: Providencia rettgeri, ATCC14505, aerobic, read-out: minimum inhibitory concentration (MIC)
[8] = system: Pseudomonas aeruginosa NR 2950; assay: as above; assay type: cell-based; settings: NR2950, aerobic, read-out: minimum inhibitory concentration (MIC)
[9] = system: Salmonella typhimurium IFO 12529; assay: as above; assay type: cell-based; settings: Salmonella enterica, aerobic, read-out: minimum inhibitory concentration (MIC)
[10] = system: Staphylococcus aureus FDA 209P JC-1; assay: as above; assay type: cell-based; settings: FDA209P, read-out: minimum inhibitory concentration (MIC)
[11] = system: Escherichia coli NIHJ JC-2; assay: as above; assay type: cell-based; settings: NIHJJC2, aerobic, read-out: minimum inhibitory concentration (MIC)
[12] = system: Citrobacter freundii IFO 12681; assay: as above; assay type: cell-based; settings: IFO12681, aerobic, read-out: minimum inhibitory concentration (MIC)
[13] = system: Staphylococcus epidermidis IFO 12993; assay: as above; assay type: cell-based; settings: IFO12993, aerobic, read-out: minimum inhibitory concentration (MIC)
[14] = system: Staphylococcus aureus Smith; assay: as above; assay type: cell-based; settings: Staphylococcus aureus Smith; aerobic; agar dilution; read-out: minimum inhibitory concentration (MIC)
[15] = system: Pseudomonas stutzeri IFO 12695; assay: as above; assay type: cell-based; settings: Stutzerimonas stutzeri, IFO12695, aerobic, read-out: minimum inhibitory concentration (MIC)
[16] = system: Alcaligenes faecalis IFO 13111; assay: as above; assay type: cell-based; settings: IFO13111, aerobic, read-out: minimum inhibitory concentration (MIC)
[17] = system: Enterobacter cloacae NR 2946; assay: as above; assay type: cell-based; settings: NR2946, aerobic, read-out: minimum inhibitory concentration (MIC)
[18] = system: Staphylococcus epidermidis NR 2942; assay: as above; assay type: cell-based; settings: NR2942, aerobic, read-out: minimum inhibitory concentration (MIC)
[19] = system: Bacillus subtilis PCI 219; assay: as above; assay type: cell-based; settings: PCI219, aerobic, read-out: minimum inhibitory concentration (MIC)
[20] = system: Pseudomonas aeruginosa A3; assay: as above; assay type: cell-based; settings: aerobic, read-out: minimum inhibitory concentration (MIC)
[21] = system: Proteus vulgaris OX19 ATCC 6898; assay: as above; assay type: cell-based; settings: ATCC6898, aerobic, read-out: minimum inhibitory concentration (MIC)
[22] = system: Klebsiella pneumoniae FDA PCI 602; assay: as above; assay type: cell-based; settings: FDAPCI602, aerobic, read-out: minimum inhibitory concentration (MIC)
Escherichia coli NR 2630 = assay: as above; assay type: cell-based; settings: NR2630; Escherichia coli NR 2630; aerobic; agar dilution; read-out: minimum inhibitory concentration (MIC)
[23] = Staphylococcus aureus FDA 209P JC-1, aerobic, agar dilution

## CN1COc2c(N3CCCNCC3)c(F)cc3c(=O)c(C(=O)O)cn1c23 [Example 16]
[1]
  MIC: 6.25 µg/mL (≈ 17.2 µM)
[2]
  LD50: > 2000 mg/kg
[3]
  MIC: 25 µg/mL (≈ 69 µM)
[4]
  MIC: 25 µg/mL (≈ 69 µM)
[5]
  MIC: 0.05 µg/mL (≈ 0.138 µM)
[6]
  MIC: 0.39 µg/mL (≈ 1.08 µM)
[7]
  MIC: 1.56 µg/mL (≈ 4.31 µM)
[8]
  MIC: 6.25 µg/mL (≈ 17.2 µM)
[9]
  MIC: 0.1 µg/mL (≈ 0.276 µM)
[10]; [23]
  MIC: 0.39 µg/mL (≈ 1.08 µM)
[11]
  MIC: 0.2 µg/mL (≈ 0.552 µM)
[12]
  MIC: 0.1 µg/mL (≈ 0.276 µM)
[13]
  MIC: 1.56 µg/mL (≈ 4.31 µM)
[14]
  MIC: 0.39 µg/mL (≈ 1.08 µM)
[15]
  MIC: 0.05 µg/mL (≈ 0.138 µM)
[16]
  MIC: 50 µg/mL (≈ 138 µM)
[17]
  MIC: 0.1 µg/mL (≈ 0.276 µM)
[18]
  MIC: 1.56 µg/mL (≈ 4.31 µM)
[19]
  MIC: 0.2 µg/mL (≈ 0.552 µM)
[20]
  MIC: 0.39 µg/mL (≈ 1.08 µM)
[21]
  MIC: 0.1 µg/mL (≈ 0.276 µM)
[22]
  MIC: 1.56 µg/mL (≈ 4.31 µM)

## CCNC1CCN(c2c(F)cc3c(=O)c(C(=O)O)cn4c3c2OCN4C)C1 (stereo not shown) [Example 32]
[1]
  MIC: 0.39 µg/mL (≈ 1.04 µM)
[3]
  MIC: 1.56 µg/mL (≈ 4.14 µM)
[4]
  MIC: 6.25 µg/mL (≈ 16.6 µM)
[5]
  MIC: 0.025 µg/mL (≈ 0.0664 µM)
[6]
  MIC: 0.39 µg/mL (≈ 1.04 µM)
[7]
  MIC: 1.56 µg/mL (≈ 4.14 µM)
[8]
  MIC: 3.13 µg/mL (≈ 8.32 µM)
[9]
  MIC: 0.025 µg/mL (≈ 0.0664 µM)
[10]; [23]
  MIC: 0.2 µg/mL (≈ 0.531 µM)
[11]
  MIC: 0.1 µg/mL (≈ 0.266 µM)
[12]
  MIC: 0.1 µg/mL (≈ 0.266 µM)
[13]
  MIC: 0.39 µg/mL (≈ 1.04 µM)
[14]
  MIC: 0.1 µg/mL (≈ 0.266 µM)
[15]
  MIC: 0.1 µg/mL (≈ 0.266 µM)
[16]
  MIC: 1.56 µg/mL (≈ 4.14 µM)
[17]
  MIC: 0.1 µg/mL (≈ 0.266 µM)
[18]
  MIC: 0.39 µg/mL (≈ 1.04 µM)
[19]
  MIC: 0.05 µg/mL (≈ 0.133 µM)
[20]
  MIC: 0.39 µg/mL (≈ 1.04 µM)
Escherichia coli NR 2630
  MIC: 0.025 µg/mL (≈ 0.0664 µM)
[21]
  MIC: 0.025 µg/mL (≈ 0.0664 µM)
[22]
  MIC: 0.39 µg/mL (≈ 1.04 µM)

## CC1CN(c2c(F)cc3c(=O)c(C(=O)O)cn4c3c2OCN4C)CCN1 (stereo not shown) [Example 7, 9-fluoro-3-methyl-10-(3-methyl-1-piperazinyl)-7-oxo-2,3-dihydro-7H-pyrido[3,2,1-ij]-1,3,4-benzoxadiazine-6-carboxylic acid]
[1]
  MIC: 1.56 µg/mL (≈ 4.31 µM)
[2]
  LD50: > 2000 mg/kg
[3]
  MIC: 3.13 µg/mL (≈ 8.64 µM)
[4]
  MIC: 12.5 µg/mL (≈ 34.5 µM)
[5]
  MIC: 0.05 µg/mL (≈ 0.138 µM)
[6]
  MIC: 0.2 µg/mL (≈ 0.552 µM)
[7]
  MIC: 0.78 µg/mL (≈ 2.15 µM)
[8]
  MIC: 3.13 µg/mL (≈ 8.64 µM)
[9]
  MIC: 0.05 µg/mL (≈ 0.138 µM)
[10]; Staphylococcus aureus
  MIC: 0.39 µg/mL (≈ 1.08 µM)
[11]
  MIC: 0.1 µg/mL (≈ 0.276 µM)
[12]
  MIC: 0.05 µg/mL (≈ 0.138 µM)
[13]
  MIC: 0.78 µg/mL (≈ 2.15 µM)
[14]
  MIC: 0.2 µg/mL (≈ 0.552 µM)
[15]
  MIC: 0.05 µg/mL (≈ 0.138 µM)
[16]
  MIC: 6.25 µg/mL (≈ 17.2 µM)
[17]
  MIC: 0.1 µg/mL (≈ 0.276 µM)
[18]
  MIC: 0.78 µg/mL (≈ 2.15 µM)
[19]
  MIC: 0.1 µg/mL (≈ 0.276 µM)
[20]
  MIC: 0.2 µg/mL (≈ 0.552 µM)
Escherichia coli NR 2630
  MIC: 0.025 µg/mL (≈ 0.069 µM)
[21]
  MIC: 0.025 µg/mL (≈ 0.069 µM)
[22]
  MIC: 0.39 µg/mL (≈ 1.08 µM)
